# Measurements as given in US9681658B2, “Penetrants for agrochemical formulations” (CRODA INTERNATIONAL PLC, priority 2012, dated 2017).
# Tested on: Isolated cuticles from apple leaves (Malus domestica cv. 'Golden Delicious')
# Assay: Leaf penetration (Franz cell diffusion of Imidacloprid through isolated cuticles)
# Format: in vitro ADME
# Conditions: active alone without penetrant
# Protocol: The following test method was used to assess leaf penetration properties of the synthesised ethoxylated polyol alkoxylates P1 to P18.
# Franz cells were set up containing: • Receptor solution: 10 mM sodium phosphate buffer pH 6.0 containing 0.1 mM sodium azide • Donor solution: unformulated pesticide containing 0.5 g/l of Imidacloprid (N-[1-[(6-Chloro-3-pyridyl)methyl]-4,5-dihydroimidazol-2-yl]nitramide) and 2.5 g/l of penetrant, in 5 mM lactic acid (pre-buffered with KOH), preserved with 0.5 mM sodium azide, (+/−0.25% w/v), i.e. 2.5 g/l donor).
# The Franz cell experiments were used for diffusion experiments. Isolated cuticles from apple leaves (Malus domestica cv. ‘Golden Delicious’) were prepared based on the method detailed in US 2009/0247597. The donor compartment was removed to aid deposit formation. Experiments were performed at a controlled temperature of 20° C., and a controlled relative humidity of 58%. A calibration was carried out (0-100% penetration) obtaining the concentration of Imidacloprid in the receiver solution removed from the Franz Cell.
# HPLC-UV was used to assay imidacloprid concentration using an Agilent 1260 Quaternary LC system. Each penetrant was tested for leaf penetration properties, with a total of 18 Franz cells used for percentage penetration determination. A calibration was carried out before each set of samples was analysed. […]
smiles,measurement,value
"O=[N+]([O-])NC1=NCCN1Cc1ccc(Cl)nc1 [Imidacloprid, N-[1-[(6-Chloro-3-pyridyl)methyl]-4,5-dihydroimidazol-2-yl]nitramide]",% penetration after 72 hours,1.7%
